Consider 2 compounds from PMC8557913, “Characterization of Phosphopantetheinyl Hydrolase from Mycobacterium tuberculosis” (Microbiology Spectrum, 2021).

Test [1] has as its target PptH (Rv2795c) (Mycobacterium tuberculosis, UniProt I6YEE1). The test can be described thus: biochemical.
Test [2] concerns the target T1, Sfp (Bacillus subtilis, UniProt P39135).
T1 sequence (P39135 1-224): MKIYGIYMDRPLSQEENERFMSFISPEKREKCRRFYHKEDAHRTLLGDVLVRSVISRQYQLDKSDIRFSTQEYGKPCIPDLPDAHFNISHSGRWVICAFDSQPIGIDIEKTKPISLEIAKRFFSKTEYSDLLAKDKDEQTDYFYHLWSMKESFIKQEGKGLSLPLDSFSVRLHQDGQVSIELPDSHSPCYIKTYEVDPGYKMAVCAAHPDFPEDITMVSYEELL
The test can be described thus: transfer of biotin-labelled Ppt to apo-carrier protein, streptavidin blot. Type of test: biochemical. The following applies: labelled compound; co-substrate apo-AcpM (also PKS13 ACP, EcEntB, EcACP, KpACP, PaACP); 50 mM Tris-HCl pH 7.5, 15 mM MgCl2, 37°C.

Sequence of PptH (Rv2795c) (I6YEE1 1-310): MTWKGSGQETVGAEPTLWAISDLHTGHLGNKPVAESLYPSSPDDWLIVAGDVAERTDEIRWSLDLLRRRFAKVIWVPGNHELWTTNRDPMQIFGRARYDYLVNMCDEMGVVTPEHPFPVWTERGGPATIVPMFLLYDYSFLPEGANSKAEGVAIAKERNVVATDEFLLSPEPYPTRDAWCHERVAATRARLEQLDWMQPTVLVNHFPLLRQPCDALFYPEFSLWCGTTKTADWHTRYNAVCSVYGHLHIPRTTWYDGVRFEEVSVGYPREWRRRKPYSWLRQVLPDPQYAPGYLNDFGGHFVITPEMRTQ

`Nc1ncnc2c1ncn2[C@@H]1O[C@H](COP(=O)(O)O)[C@@H](O)[C@H]1O` [AMP] returned an IC50 in test [1] of 456 µM.

For the compound `CC(C)(COP(=O)(O)OP(=O)(O)OC[C@H]1O[C@@H](n2cnc3c(N)ncnc32)[C@H](O)[C@@H]1OP(=O)(O)O)[C@@H](O)C(=O)NCCC(=O)NCCSCC(=O)NCCOCCOCCNC(=O)CCCC[C@@H]1SC[C@@H]2NC(=O)N[C@@H]21` [biotin-PEG-ACM-CoA], the “transfer of biotin-labelled Ppt to apo-carrier protein, streptavidin blot” value in test [2] is “Upon incubation of the *CoA probe with apo-AcpM and Sfp”.
